Experimental findings from patent publication US20230028441A1, “NOVEL HETEROARYL-TRIAZOLE COMPOUNDS AS PESTICIDES” (Bayer Aktiengesellschaft, priority 2019, published 2023) are described below.

What all share (format): in vivo
Assay [1] has as its system adult engorged female ticks (Rhipicephalus microplus). The assay is described as follows: Rhipicephalus (Boophilus) microplus injection test. To be noted: 168 h, egg deposition after 7 days, read-out: efficacy (infertile eggs); for pest or weed control at 0.004 mg: 4 μg/animal. Summed up:
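Efficacy is the share of infertile eggs: 100% means none are fertile, 0% means all are fertile. Egg deposition was checked 7 days after injecting 1 μL of DMSO-diluted compound into the abdomen of five engorged female R. microplus, with doubtful eggs kept about 42 days to hatching. The stock was 10 mg in 0.5 mL DMSO.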

Assay [2] has as its system Aedes aegypti strain MONHEIM. The experiment in a line: Aedes aegypti test (AEDSAE surface treatment & contact assay). The following applies: 24 hours after contact, read-out: efficacy (mortality); for mortality at 4 mg/m2: surface concentration 4 mg/m^2, 30 minutes exposure; for mortality at 20 mg/m2: surface concentration 20 mg/m^2, 30 minutes exposure. How it is done:
(§1) Solvent: Aceton+2000 ppm rapeseed oil methyl ester (RME)
In order to produce a sufficient, active ingredient containing solution it is necessary to solve the test compound in the solvent-mix (acetone at 2 mg/ml/RME 2000 ppm). This solution is pipetted onto a glazed tile and after evaporation of the acetone, adult mosquitoes of the species Aedes aegypti strain MONHEIM are placed onto the dried surface. The exposure time is 30 minutes. Mortality in percent (%) is determined 24 hours after contact of the insects to the treated surface. 100% mortality means that all tested insects are dead, whereas 0% means that no insect died.

The test system of assay [3] is cattle tick larvae (Rhipicephalus microplus), strain Parkhurst, resistant against synthetic pyrethroids. The experiment in a line: Rhipicephalus (Boophilus) microplus in-vitro contact test, larval cattle tick. To be noted: 5 μg/cm^2 (=500 g/ha), after 48 hours, read-out: efficacy (larvae dead or moribund). In a few lines: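 Efficacy, 100% meaning all larvae dead or moribund, was judged at 48 h from loss of negative geotactic climbing. Larvae of the Parkhurst strain, 20–50 per tube, were exposed at 27° C and 85% humidity to acetone-coated tube surfaces; 900 ppm corresponded to 5 μg/cm^2.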

Assay [4] has as its system adult unfed cat fleas (Ctenocephalides felis). The assay is described as follows: Ctenocephalides felis oral test. The following applies: 48 h, 100 ppm in cattle blood, after 2 days. In a few lines:
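Percent flea mortality recorded at 2 days. Compound was dissolved in dimethyl sulfoxide and diluted into cattle blood, which ~20 unfed adult cat fleas ingested through parafilm from a 37°C-heated chamber, their own chamber kept at room temperature.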

The subject of assay [5] is adult brown dog ticks (Rhipicephalus sanguineus). The assay is described as follows: Rhipicephalus sanguineus in-vitro contact test with adult brown dog ticks. To be noted: after 48 hours, read-out: efficacy (ticks dead or moribund); for pest or weed control at 1 µg/cm2, 100 g/ha: 1 μg/cm^2 (=100 g/ha); for pest or weed control at 5 µg/cm2, 500 g/ha: 5 μg/cm^2 (=500 g/ha). In a few lines:
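Efficacy is the percentage of adult ticks dead or moribund, meaning immotile or uncoordinated and unable to escape 45-50° C. heat within 5 min. Read 48 h after 5-10 ticks were enclosed at room temperature in acetone-coated glass tubes. Dose 5 μg/cm^2, from a 900 ppm coating solution.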

Assay [6] has as its system larvae of the southern green stink bug (Nezara viridula). The experiment in a line: Nezara viridula spray test. To be noted: in Hordeum vulgare, 96 h. Summed up: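 Percent mortality of southern green stink bug larvae read 4 days after spraying infested Hordeum vulgare. Test solutions: compound in acetone plus dimethylformamide, diluted with emulsifier-containing water (1000 ppm alkylarylpolyglycol ether).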

The subject of assay [7] is larvae of the banded cucumber beetle (Diabrotica balteata). The assay is described as follows: Diabrotica balteata spray test. To be noted: 168 h, after 7 days, wheat seeds, read-out: efficacy (seedlings grown up); for pest or weed control at 32 µg/disc, 100 g/ha: 100 g/ha (=32 μg/well). Summed up:
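Efficacy (%) read at day 7: 100% means seedlings grew like untreated, uninfested controls; 0% means no seedlings grew. Wheat seeds germinated 1 day on agar, sprayed with emulsified compound solution (1000 ppm emulsifier in water), then each well infested with 10-20 larvae.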

For assay [8], the system named is fall armyworm larvae (Spodoptera frugiperda). The assay is described as follows: Spodoptera frugiperda spray test (maize leaf sections). To be noted: 168 h. In a few lines:
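Percent kill of Spodoptera frugiperda larvae was recorded 7 days after infesting dried, treated maize leaf sections. Spray solutions were made from an acetone/DMF compound preparation diluted with 1000 ppm emulsifier-containing water.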

Assay [9] concerns Musca domestica strain WHO-N. The assay is described as follows: Musca domestica test (MUSCDO surface treatment & contact assay). The following applies: 24 hours after contact, read-out: efficacy (mortality); for mortality at 4 mg/m2: surface concentration 4 mg/m^2, 30 minutes exposure; for mortality at 20 mg/m2: surface concentration 20 mg/m^2, 30 minutes exposure. How it is done:
as §1
In order to produce a sufficient, active ingredient containing solution it is necessary to solve the test compound in the solvent-mix (acetone at 2 mg/ml/RME 2000 ppm). This solution is pipetted onto a glazed tile and after evaporation of the acetone, adult flies of the species Musca domestica strain WHO-N are placed onto the dried surface. The exposure time is 30 minutes. Mortality in percent (%) is determined 24 hours after contact of the insects to the treated surface. 100% mortality means that all tested insects are dead, whereas 0% means that no insect died.

Take `CNc1nc(C(C)NC(=O)c2cc(C(F)(F)F)cc(C(F)(F)F)c2)n(-c2ncccn2)n1` (stereo not shown) [I-088]: the pest or weed control at 0.004 mg in assay [1] amounted to 100%. In addition, in assay [2], the mortality at 4 mg/m2 was in the range of 90 to 100% and the mortality at 20 mg/m2 lay within 90 to 100%. Besides, in assay [3], the pest or weed control at 5 µg/cm2 came out at 100%. Besides, the mortality at 100 ppm in assay [4] was determined as 100%. In [5], the pest or weed control at 1 µg/cm2, 100 g/ha was found to be 100% and the pest or weed control at 5 µg/cm2, 500 g/ha stood at 100%. Further, in assay [6], the mortality at 100 g/ha amounted to 100%. For the same compound, the pest or weed control at 32 µg/disc, 100 g/ha in assay [7] was 100%. Moreover, in [8], the mortality at 100 g/ha was 100%. In assay [9], the mortality at 4 mg/m2 lay within 90 to 100% and the mortality at 20 mg/m2 lay in the range of 90 to 100%.
Consider `CC(NC(=O)c1cc(Cl)cc(C(F)(F)F)c1)c1nc(N)nn1-c1ccc(Cl)cn1` (racemic) [I-006, N-[1-[5-amino-2-(5-chloro-2-pyridyl)-1,2,4-triazol-3-yl]ethyl]-3-chloro-5-(trifluoromethyl)benzamide], for which the pest or weed control at 0.004 mg in assay [1] was determined as 100%. The pest or weed control at 0.02 mg in [1] (20 μg/animal) was 100%. Also, in [2], the mortality at 4 mg/m2 lay in the range of 90 to 100% and the mortality at 20 mg/m2 was 90 to 100%. Besides, the pest or weed control at 5 µg/cm2 in assay [3] is 100%. This compound yielded a mortality at 100 ppm in assay [4] of 100%. In [5], the pest or weed control at 1 µg/cm2, 100 g/ha turned out to be 80% and the pest or weed control at 5 µg/cm2, 500 g/ha was found to be 100%. Also, in assay [6], the mortality at 100 g/ha turned out to be 100% and the mortality at 500 g/ha worked out at 100%. Also, the pest or weed control at 32 µg/disc, 100 g/ha in assay [7] stood at 100%. Besides, the pest or weed control at 160 µg/disc, 500 g/ha in assay [7] (500 g/ha (=160 μg/well)) worked out at 100%. In assay [8], this compound returned a mortality at 100 g/ha of 100% and a mortality at 500 g/ha of 100%. Moreover, in assay [9], the mortality at 4 mg/m2 is 90 to 100% and the mortality at 20 mg/m2 was in the range of 90 to 100%.

One may read the mortality as the percentage killed.
